# Entries after “also recorded” stand apart in the source; their conditions may differ.
# Experiments:
# [1] = tested on: mature internodal stem segments of sweet orange cv. Hamlin; test: Culture of explants on DBA3 medium with surfactant: fresh weight and shoot regeneration; format: cell-based, Citrus sinensis; conditions: for % Organogenic explants / Total shoot yield: 60 explants/treatment
# Procedure: Mature budwood collected from C. sinensis cv. Hamlin from virus-free greenhouse material were grafted onto seedlings of rough lemon (C. jambhiri Lush.) and maintained in a greenhouse (20-27° C.). The developing shoots were allowed to grow as one, two and three flushes, each used separately for experimental studies. Shoots (approx. 20 cm in length) were pruned from each plant and used for explant preparation. The stems were stripped of their thorns and leaves, surface-sterilized in 70% ethanol (1 min), disinfected for 20 min in 20% (v/v) domestic bleach solution containing 0.2% (v/v) Tween® 20 and washed five times with sterile distilled water. Internodal stem explants were cut transversely into 1 cm long segments and placed horizontally onto the culture media with the cut ends submerged (approx. 2 mm) into the medium. […] The non-ionic surfactants were dissolved in sterile-distilled water and then filter-sterilized before adding to the medium after autoclaving, along with filter-sterilized Gamborg B5 vitamins and de-proteinized coconut water. Cultures were maintained in the light (60 μm m^−2s^−1 cool light fluorescent tubes) under a 16 h photoperiod at 28±2° C. and subcultured at 21-28 d intervals. After 10 weeks, the weight of each explant and the number of adventitious shoots was recorded. This experiment was repeated for each of the first three flushes of shoots to compare growth and shoot regeneration efficiencies.
# [2] = tested on: shoots regenerated from mature stem segments of sweet orange cv. Hamlin; test: Grafting of regenerated adventitious shoots onto rough lemon rootstock: survival and growth; format: in vivo, Citrus sinensis
# Source text: Adventitious shoots (0.5 cm long) were excised from mature stem segments and grafted in vivo onto rough lemon seedlings. Briefly, rough lemon seedlings (approx. 25-30 cm in height) were decapitated (approx. 15 cm above ground) where the diameter of the stem equals the width of the shoot (2-3 mm). A 5 mm deep longitudinal cut is made into the cambium layer of the seedling into which the shoot is wedged and the grafted area sealed with Parafilm. The shoot is wounded, each side, by removing approx. 1 mm of the surface with a scalpel blade in the same plane as the exposed cambium layer to promote growth of the new shoot. The whole plant is covered with a clear plastic bag and maintained in the light (100 μm^−2s^−1 cool light fluorescent tubes) under a 16 h photoperiod at 22-24° C. After approx. 21 d, the grafted shoot starts to grow and the bag is gradually opened to aid acclimatization. The plant is then transferred to the greenhouse approx. 28 d later and allowed to grow to maturity.
# Shoots (approx. 1 cm in length) were excised from explants and grafted onto a rough lemon rootstock to allow growth and development. […] This phenotype of growth and development is typical of a mature citrus tree as observed in previous studies on the tissue culture of mature internodal stem segments (Cervera et al., 1998, Transgenic Res 7: 51-59).
# [3] = tested on: cotyledonary explants of Jute; conditions: cited from earlier work
# [4] = Flush 1, surfactant 0.001%, 10 weeks of culture
# [5] = Flush 1, surfactant 0.01%, 10 weeks of culture
# [6] = Flush 1, surfactant 0.1%, 10 weeks of culture
# [7] = Flush 1, surfactant 0.5%, 10 weeks of culture
# [8] = Flush 2, surfactant 0.001%, 10 weeks of culture
# [9] = Flush 2, surfactant 0.01%, 10 weeks of culture
# [10] = Flush 2, surfactant 0.1%, 10 weeks of culture
# [11] = Flush 2, surfactant 0.5%, 10 weeks of culture
# [12] = Flush 3, surfactant 0.001%, 10 weeks of culture
# [13] = Flush 3, surfactant 0.01%, 10 weeks of culture
# [14] = Flush 3, surfactant 0.1%, 10 weeks of culture
# [15] = Flush 3, surfactant 0.5%, 10 weeks of culture
# [16] = shoots from explants cultured at 0.001-0.1% (v/v), rough lemon rootstock
substance,measurement,setting,value
polyoxyethylene (20) sorbitan monolaurate [Tween® 20],Mean fresh weight,[1]; [4],273 ± 15 mg
same,Mean number of shoots per explant,[1]; [4],0.23 ± 0.08
same,% Organogenic explants,[1]; [4],15%
same,Total shoot yield,[1]; [4],14
same,Mean fresh weight,[1]; [5],218 ± 12 mg
same,Mean number of shoots per explant,[1]; [5],0.25 ± 0.07
same,% Organogenic explants,[1]; [5],18.5%
same,Total shoot yield,[1]; [5],15
same,Mean fresh weight,[1]; [6],269 ± 13 mg
same,Mean number of shoots per explant,[1]; [6],0.31 ± 0.08
same,% Organogenic explants,[1]; [6],23%
same,Total shoot yield,[1]; [6],19
same,Mean fresh weight,[1]; [7],253 ± 12 mg
same,Mean number of shoots per explant,[1]; [7],0.18 ± 0.06
same,% Organogenic explants,[1]; [7],15%
same,Total shoot yield,[1]; [7],11
same,Mean fresh weight,[1]; [8],240 ± 15 mg
same,Mean number of shoots per explant,[1]; [8],0.22 ± 0.07
same,% Organogenic explants,[1]; [8],15%
same,Total shoot yield,[1]; [8],13
same,Mean fresh weight,[1]; [9],260 ± 13 mg
same,Mean number of shoots per explant,[1]; [9],0.20 ± 0.07
same,% Organogenic explants,[1]; [9],13.5%
same,Total shoot yield,[1]; [9],12
same,Mean fresh weight,[1]; [10],302 ± 19 mg
same,Mean number of shoots per explant,[1]; [10],0.22 ± 0.07
same,% Organogenic explants,[1]; [10],17%
same,Total shoot yield,[1]; [10],13
same,Mean fresh weight,[1]; [11],250 ± 13 mg
same,Mean number of shoots per explant,[1]; [11],0.17 ± 0.06
same,% Organogenic explants,[1]; [11],13.5%
same,Total shoot yield,[1]; [11],10
same,Mean fresh weight,[1]; [12],193 ± 8 mg
same,Mean number of shoots per explant,[1]; [12],0.07 ± 0.03
same,% Organogenic explants,[1]; [12],7%
same,Total shoot yield,[1]; [12],4
same,Mean fresh weight,[1]; [13],161 ± 7 mg
same,Mean number of shoots per explant,[1]; [13],0.05 ± 0.03
same,% Organogenic explants,[1]; [13],5%
same,Total shoot yield,[1]; [13],3
same,Mean fresh weight,[1]; [14],155 ± 7 mg
same,Mean number of shoots per explant,[1]; [14],0.08 ± 0.04
same,% Organogenic explants,[1]; [14],8.5%
same,Total shoot yield,[1]; [14],5
same,Mean fresh weight,[1]; [15],130 ± 6 mg
same,Mean number of shoots per explant,[1]; [15],0.05 ± 0.03
same,% Organogenic explants,[1]; [15],5%
same,Total shoot yield,[1]; [15],3
same,weight of explants compared to medium without surfactant,[1]; all three flushes of growth,no significant difference
same,growth of vitrified shoots following grafting,[2]; shoots from explants cultured on DBA3 with surfactant (0.01-0.5% (v/v)),failed to graft successfully in vivo; also recorded: all failed to initiate growth following grafting
same,fresh weight gain,[3]; 0.001-0.01% (v/v),significantly increased
same,number of regenerants,[3]; 0.001-0.01% (v/v),significantly increased
same,growth,[3]; 0.5% (v/v),inhibitory to growth
same,shoot production,[3]; 0.5% (v/v),inhibited
same,shoot regeneration of jute cotyledons,[3],able to promote shoot regeneration
"polyethylene glycol p-(1,1,3,3-tetramethylbutyl)-phenyl ether [Triton® X-100]",Mean fresh weight,"[1]; 0.001% (v/v) in DBA3, first flush",347±24 mg f. wt.
same,number of shoots per explant and number of explants giving shoots compared to the control,"[1]; 0.001% (v/v) in DBA3, first two flushes",lower compared to the control
same,Mean fresh weight,"[1]; 0.001% (v/v) in DBA3, second flush",309±23 mg f. wt.
same,"fresh weight gain, number of shoots per explant and number giving shoots compared to DBA3 without surfactant",[1]; 0.1-0.5% (v/v) in DBA3,significantly (P<0.05) reduced
same,shoot regeneration,[1]; 0.5% (v/v) in DBA3,failed to regenerate shoots
same,Mean fresh weight,[1]; [4],347 ± 24 mg
same,Mean number of shoots per explant,[1]; [4],0.13 ± 0.06
same,% Organogenic explants,[1]; [4],10%
same,Total shoot yield,[1]; [4],8
same,Mean fresh weight,[1]; [5],254 ± 13 mg
same,Mean number of shoots per explant,[1]; [5],0.18 ± 0.07
same,% Organogenic explants,[1]; [5],13.5%
same,Total shoot yield,[1]; [5],11
same,Mean fresh weight,[1]; [6],153 ± 7 mg
same,Mean number of shoots per explant,[1]; [6],0.08 ± 0.04
same,% Organogenic explants,[1]; [6],6.5%
same,Total shoot yield,[1]; [6],5
same,Mean fresh weight,[1]; [7],75 ± 3 mg
same,Mean number of shoots per explant,[1]; [7],0.00 ± 0.00
same,% Organogenic explants,[1]; [7],0%
same,Total shoot yield,[1]; [7],0
same,Mean fresh weight,[1]; [8],309 ± 23 mg
same,Mean number of shoots per explant,[1]; [8],0.07 ± 0.03
same,% Organogenic explants,[1]; [8],6.5%
same,Total shoot yield,[1]; [8],4
same,Mean fresh weight,[1]; [9],264 ± 14 mg
same,Mean number of shoots per explant,[1]; [9],0.10 ± 0.05
same,% Organogenic explants,[1]; [9],6.5%
same,Total shoot yield,[1]; [9],6
same,Mean fresh weight,[1]; [10],158 ± 7 mg
same,Mean number of shoots per explant,[1]; [10],0.05 ± 0.03
same,% Organogenic explants,[1]; [10],5%
same,Total shoot yield,[1]; [10],3
same,Mean fresh weight,[1]; [11],85 ± 4 mg
same,Mean number of shoots per explant,[1]; [11],0.00 ± 0.00
same,% Organogenic explants,[1]; [11],0%
same,Total shoot yield,[1]; [11],0
same,Mean fresh weight,[1]; [12],135 ± 7 mg
same,Mean number of shoots per explant,[1]; [12],0.08 ± 0.04
same,% Organogenic explants,[1]; [12],6.5%
same,Total shoot yield,[1]; [12],5
same,Mean fresh weight,[1]; [13],126 ± 6 mg
same,Mean number of shoots per explant,[1]; [13],0.02 ± 0.02
same,% Organogenic explants,[1]; [13],1.5%
same,Total shoot yield,[1]; [13],1
same,Mean fresh weight,[1]; [14],89 ± 3 mg
same,Mean number of shoots per explant,[1]; [14],0.00 ± 0.00
same,% Organogenic explants,[1]; [14],0%
same,Total shoot yield,[1]; [14],0
same,Mean fresh weight,[1]; [15],61 ± 8 mg
same,Mean number of shoots per explant,[1]; [15],0.00 ± 0.00
same,% Organogenic explants,[1]; [15],0%
same,Total shoot yield,[1]; [15],0
same,shoots survived / shoots grafted,[2]; [16],5/15
same,survival rate of shoots following grafting,[2]; [16],33%
same,growth of explants,[3]; 0.001% (v/v),increased also the growth
same,state of shoots after transfer to shoot elongation medium,"[3]; 0.001%, after 14-21 days",became necrotic
same,shoot regeneration of jute cotyledons,[3],able to promote shoot regeneration
same,growth and regeneration of explants,[3]; concentrations above 0.001% (v/v),inhibited the growth and regeneration
